Laboratory results from patent US12083105B2, “Compositions and methods for treating adult-onset neuronal ceroid lipofuscinosis (Kufs disease)” (CORNELL UNIVERSITY, priority 2020, dated 2024).

Experiments:
Assay type in all cases: cell-based, human
[1] = system: Fe—S clusters bound to immunoprecipitated CSPα; experiment: UV-Vis absorbance spectra of CSPα immunoprecipitated from ANCL patient fibroblasts; conditions: 200 μM, 72 h, compared to control (0.1% DMSO), FIG. 7A
Experimental: (§1) ANCL patient-derived fibroblasts were treated with 200 μM of L1 or Dfx, or vehicle (0.1% DMSO=Control) for 72 h, before measuring the UV-Vis absorbance spectra of immunoprecipitated CSPα eluted by trypsinization (solid lines). Spectra were re-read after 10 min of 0.1 N HCl treatment (dashed lines). The experiments shown in FIGS. 7B-7I, were conducted using ANCL fibroblasts converted to iNs using BAM+ND1 technique. […] Quantitative immunoblotting was used to measure levels of oligomerized and fully palmitoylated CSPα as well as total SNAP-25. Oligo=oligomers; Palm=palmitoylated. […] The interaction of CSPα with SNAP-25 in ANCL iNs was measured by immunoprecipitating SNAP-25 followed by quantitative immunoblotting of co-immunoprecipitated CSPα (normalized to SNAP-25 IP). Note that mainly CSPα monomers and not oligomers were detected bound to SNAP-25. Control=control sham IP without IgG. […] Turnover of SNAP-25 was determined by cycloheximide chase, while maintaining the iron-chelators or vehicle in the medium. […] In the experiments shown in FIGS. 7E-7G, ANCL iNs treated with L1, Dfx, or vehicle for 56 d and analyzed. […] The levels of lipofuscin were determined by ELISA. In the experiments shown in FIGS. 7H-7I 56 day old untreated ANCL iNs were treated with L1, Dfx, or vehicle, and analyzed. […]

[2] = system: SNAP-25; experiment: SNAP-25 turnover in ANCL iNs by cycloheximide chase; conditions: 72 h pretreatment, cycloheximide chase in presence of chelator, FIG. 7D
Experimental: as §1

[3] = system: ANCL iNs; experiment: Lipofuscin ELISA in ANCL iNs; conditions: compared to control; for lipofuscin ELISA signal: ANCL iNs treated for 56 d (prevention), FIG. 7G; for levels of lipofuscin (ELISA): added to ANCL iNs after 56 days of lipofuscin accumulation, 0, 7, 14, 21 d of treatment, FIG. 7I
Experimental: ANCL patient-derived fibroblasts were treated with 200 μM of L1 or Dfx, or vehicle (0.1% DMSO=Control) for 72 h, before measuring the UV-Vis absorbance spectra of immunoprecipitated CSPα eluted by trypsinization (solid lines). Spectra were re-read after 10 min of 0.1 N HCl treatment (dashed lines). The experiments shown in FIGS. 7B-7I, were conducted using ANCL fibroblasts converted to iNs using BAM+ND1 technique. […] Quantitative immunoblotting was used to measure levels of oligomerized and fully palmitoylated CSPα as well as total SNAP-25. Oligo=oligomers; Palm=palmitoylated. […] The interaction of CSPα with SNAP-25 in ANCL iNs was measured by immunoprecipitating SNAP-25 followed by quantitative immunoblotting of co-immunoprecipitated CSPα (normalized to SNAP-25 IP). Note that mainly CSPα monomers and not oligomers were detected bound to SNAP-25. Control=control sham IP without IgG. […] Turnover of SNAP-25 was determined by cycloheximide chase, while maintaining the iron-chelators or vehicle in the medium. […] In the experiments shown in FIGS. 7E-7G, ANCL iNs treated with L1, Dfx, or vehicle for 56 d and analyzed. […] The levels of lipofuscin were determined by ELISA. In the experiments shown in FIGS. 7H-7I 56 day old untreated ANCL iNs were treated with L1, Dfx, or vehicle, and analyzed. […] Data are from FIG. 7A representative of n=4, FIG. 7B n=4, FIG. 7C n=4, FIG. 7D n=7, FIG. 7F n=4, FIG. 7G n=4, FIG. 7H n=6, FIG. 7I n=3. In FIGS. 7B-7C and FIGS. 7F-7G *P<0.05; **P<0.01; ****P<0.0001 by two-tailed Student's t-test. #P<0.05 by Mann-Whitney-Wilcoxon U test. In FIG. 7D-7C and FIGS. 7H-7I **P<0.01; ***P<0.001; ****P<0.0001 by two-way ANOVA; ##P<0.01; ###P<0.001; ####P<0.0001 by Tukey's multiple comparisons test.
iNs from each well of a 6 well dish were solubilized in 100 μl PBS with 0.1% Triton X-100 for 1 h at 4° C. Post nuclear supernatant collected by centrifugation at 1000 gav for 15 min was used for the assay. These samples were analyzed for lipofuscin content using human lipofuscin competitive ELISA (MyBiosource; MBS7217173). Following the colorimetric reaction, optical density at 450 nm was read from the standard and the sample wells using Synergy H1 Hybrid Reader (BioTek).
Effect of iron chelators on the accumulation of lipofuscin was monitored by ELISA for lipofuscin or based on lipofuscin autofluorescence. […] Effect of iron chelators on the accumulation of ATP5G was also studied.
As a treatment paradigm, iron-chelators were also added post-accumulation of lipofuscin. L1 and Dfx were added to ANCL iNs after 56 days of lipofuscin accumulation, and levels of ATP5G and lipofuscin were compared over the subsequent 3 weeks.

`CC(=O)N(O)CCCCCNC(=O)CCC(=O)N(O)CCCCCNC(=O)CCC(=O)N(O)CCCCCN` [Dfx, N′-[5-(Acetyl-hydroxy-amino)pentyl]-N-[5-[3-(5-aminopentyl-hydroxy-carbamoyl)propanoylamino]pentyl]-N-hydroxy-butane diamide] was tested, and the “UV-Vis signature of Fe—S clusters bound to immunoprecipitated CSPα” value [1] was “reduced”, the “turnover of SNAP-25” value [2] was “decreased turnover” and the “lipofuscin ELISA signal” value [3] was “significant reduction”. For the same molecule, the “levels of lipofuscin (ELISA)” value [3] was “reduced to the levels observed in the prevention experiments”.
With `Cc1c(O)c(=O)ccn1C` [L1, 3-hydroxy-1,2-dimethyl-4(1H)-pyridone] the “UV-Vis signature of Fe—S clusters bound to immunoprecipitated CSPα” value [1] was “reduced”, the “turnover of SNAP-25” value [2] was “decreased turnover” and the “lipofuscin ELISA signal” value [3] was “significant reduction”. For the same molecule, the “levels of lipofuscin (ELISA)” value [3] was “reduced to the levels observed in the prevention experiments”.
